Measurements from ChEMBL document CHEMBL5303304, “EUbOPEN Chemogenomics Library - IncuCyte” (2023).

Key:
Type in all cases: toxicity, cell-based
HEK-293T = assay: Incucyte cell viability with HEK293T; conditions: human, 10 µM, compound concentration 10 uM
Fibroblast = assay: Incucyte cell viability with human fibroblast; conditions: 10 µM, compound concentration 10 uM
U2OS = assay: Incucyte cell viability with U2OS; conditions: human, 10 µM, compound concentration 10 uM
Note: unitless GR value; below 1 slowed growth and below 0 cell loss.

| SMILES | Growth Rate (HEK-293T; 0 h, replicate number 2) | Growth Rate (HEK-293T; 6 h, replicate number 2) | Growth Rate (HEK-293T; 12 h, replicate number 2) | Growth Rate (HEK-293T; 18 h, replicate number 2) | Growth Rate (HEK-293T; 24 h, replicate number 2) | Growth Rate (Fibroblast; 6 h, replicate number 1) | Growth Rate (Fibroblast; 6 h, replicate number 2) | Growth Rate (Fibroblast; 12 h, replicate number 2) | Growth Rate (Fibroblast; 18 h, replicate number 1) | Growth Rate (Fibroblast; 18 h, replicate number 2) | Growth Rate (Fibroblast; 24 h, replicate number 1) | Growth Rate (Fibroblast; 24 h, replicate number 2) | Growth Rate (U2OS; 0 h, replicate number 2) | Growth Rate (U2OS; 6 h, replicate number 2) | Growth Rate (U2OS; 12 h, replicate number 1) | Growth Rate (U2OS; 12 h, replicate number 2) | Growth Rate (U2OS; 18 h, replicate number 1) | Growth Rate (U2OS; 18 h, replicate number 2) | Growth Rate (U2OS; 24 h, replicate number 1) | Growth Rate (U2OS; 24 h, replicate number 2) | also measured |
| --- | --- | --- | --- | --- | --- | --- | --- | --- | --- | --- | --- | --- | --- | --- | --- | --- | --- | --- | --- | --- | --- |
| CC1(C)C(=O)N([C@H]2CCc3c(O)cccc32)c2nc(Nc3cccc(CN4CCCC4)c3)ncc21 | -1 | -0.56 | -0.41 | -0.35 | -0.32 | -0.49 | -0.63 | -0.57 | -0.44 | -0.52 | -0.42 | -0.52 | 0.2 | -0.15 | 0.05 | -0.3 | -0.08 | -0.3 | -0.27 | -0.38 | Growth Rate (HEK-293T; 6 h, replicate number 1): -0.69; Growth Rate (HEK-293T; 12 h, replicate number 1): -0.53; Growth Rate (HEK-293T; 18 h, replicate number 1): -0.36; Growth Rate (HEK-293T; 24 h, replicate number 1): -0.28; Growth Rate (Fibroblast; 12 h, replicate number 1): -0.4; Growth Rate (U2OS; 0 h, replicate number 1): -0.88; Growth Rate (U2OS; 6 h, replicate number 1): 0.38 |
| COc1ccc([C@@H]2Sc3ccccc3N(CCN(C)C)C(=O)[C@@H]2OC(C)=O)cc1.Cl [DILTIAZEM HYDROCHLORIDE] |  | 0.11 | 0.55 | 0.86 | 0.86 |  |  |  | 0.89 | 0.94 | 0.57 | 0.87 | -0.41 |  |  |  |  | 0.94 |  |  | Growth Rate (HEK-293T; 0 h, replicate number 1): 0.6; Growth Rate (Fibroblast; 0 h, replicate number 1): 0.54; Growth Rate (Fibroblast; 0 h, replicate number 2): -0.94; Growth Rate (Fibroblast; 12 h, replicate number 1): -0.67 |
| CNC(=O)c1ccc(C)c(-n2c(C)cc(OCc3ccc(F)cc3F)c(Br)c2=O)c1 [PH-797804] | 0.72 |  |  |  |  |  | 0.91 | 0.99 |  |  |  |  | 0.65 | 0.54 | 0.91 | 0.75 |  |  |  |  | Growth Rate (Fibroblast; 0 h, replicate number 1): -0.91; Growth Rate (U2OS; 0 h, replicate number 1): -0.97 |
| O=C(Nc1c[nH]nc1-c1nc2cc(CN3CCOCC3)ccc2[nH]1)NC1CC1 [AT-9283] |  | -0.8 | -0.59 | -0.43 | -0.3 |  |  |  | 0.66 | 0.81 | 0.09 | 0.43 | 0.73 |  | 0.31 | 0.78 | -0.05 | 0.14 | -0.18 | -0.09 | Growth Rate (HEK-293T; 6 h, replicate number 1): -0.72; Growth Rate (HEK-293T; 12 h, replicate number 1): -0.57; Growth Rate (HEK-293T; 18 h, replicate number 1): -0.46; Growth Rate (HEK-293T; 24 h, replicate number 1): -0.38; Growth Rate (U2OS; 0 h, replicate number 1): -1 |
| CN1CCN([C@H]2CC[C@@H](n3cc(-c4ccc(Oc5ccccc5)cc4)c4c(N)ncnc43)CC2)CC1 |  |  | -0.8 | -0.6 | -0.44 | -1 | -0.98 | -0.72 |  | -0.51 | 0.42 | -0.46 |  | -0.23 | -0.26 | 0.01 | -0.15 | 0.03 | -0.17 | -0.03 | Growth Rate (HEK-293T; 6 h, replicate number 1): -0.98; Growth Rate (HEK-293T; 12 h, replicate number 1): -0.89; Growth Rate (HEK-293T; 18 h, replicate number 1): -0.69; Growth Rate (HEK-293T; 24 h, replicate number 1): -0.55; Growth Rate (U2OS; 0 h, replicate number 1): -1; Growth Rate (U2OS; 6 h, replicate number 1): -0.82 |
| CS(=O)(=O)NC(=O)CCC/C=C\C[C@H]1C(=O)C[C@@H](O)[C@@H]1/C=C/[C@@H](O)COc1ccccc1 [SULPROSTONE] | 0.72 | 0.91 |  |  |  | 0.27 | 0.85 | 0.39 | 0.95 | 0.47 | 0.79 | 0.63 | 0.8 | 0.91 | 0.97 | 0.91 | 0.83 |  | 0.87 | 0.94 | Growth Rate (HEK-293T; 0 h, replicate number 1): 0.99; Growth Rate (HEK-293T; 12 h, replicate number 1): 0.92; Growth Rate (HEK-293T; 18 h, replicate number 1): 0.99; Growth Rate (Fibroblast; 0 h, replicate number 1): -1; Growth Rate (Fibroblast; 0 h, replicate number 2): -0.81; Growth Rate (Fibroblast; 12 h, replicate number 1): 0.85; Growth Rate (U2OS; 0 h, replicate number 1): 0.72; Growth Rate (U2OS; 6 h, replicate number 1): 0.89 |
| CCO[C@H](COc1ccc(C(F)(F)F)cc1)CSc1ccc(OCC(=O)[O-])c(C)c1.[Na+] | -0.95 | 0.55 | 0.82 | 0.72 | 0.68 | 0.27 |  | 0.87 | 0.93 | 0.97 | 0.93 |  | 0.56 | 0.78 | 0.94 | 0.8 | 0.96 | 0.92 |  | 0.78 | Growth Rate (HEK-293T; 0 h, replicate number 1): -0.25; Growth Rate (Fibroblast; 0 h, replicate number 2): 0.62; Growth Rate (Fibroblast; 12 h, replicate number 1): 0.7 |
| NC1(c2ccc(-c3nc4c(O)ccnn4c3-c3ccccc3)cc2)CCC1 | -0.33 |  |  |  |  |  | 0.35 | 0.9 | 0.95 | 0.83 |  | 0.93 | -0.99 |  | 0.63 | 0.83 | 0.66 |  | 0.89 | 0.93 | Growth Rate (HEK-293T; 0 h, replicate number 1): -0.07; Growth Rate (HEK-293T; 24 h, replicate number 1): 0.95; Growth Rate (Fibroblast; 0 h, replicate number 1): -1; Growth Rate (Fibroblast; 0 h, replicate number 2): -0.33; Growth Rate (U2OS; 6 h, replicate number 1): 0.34 |
| CC(=O)N1CCN(c2ccc(OCC3COC(Cn4ccnc4)(c4ccc(Cl)cc4Cl)O3)cc2)CC1 (stereo unspecified) [KETOCONAZOLE] |  | -0.16 | 0.03 | 0.32 | 0.38 | 0.47 |  |  |  | 0.96 |  | 0.89 | -0.98 | 0.94 |  | 0.63 |  | 0.99 |  |  | Growth Rate (HEK-293T; 6 h, replicate number 1): -0.34; Growth Rate (HEK-293T; 12 h, replicate number 1): 0.05; Growth Rate (HEK-293T; 18 h, replicate number 1): 0.34; Growth Rate (HEK-293T; 24 h, replicate number 1): 0.6; Growth Rate (Fibroblast; 0 h, replicate number 2): -0.79; Growth Rate (Fibroblast; 12 h, replicate number 1): -1; Growth Rate (U2OS; 6 h, replicate number 1): 0.7 |
| O=C(N[C@H]1CN2CCC1CC2)c1ccc(Cl)cc1 [PNU-282987] |  | 0.88 | 0.94 |  | 1 | -0.45 | -0.01 | 0.79 |  | 0.85 |  | 0.81 | -0.61 | 0.78 | 0.84 |  | 0.75 | 0.8 | 0.94 | 0.86 |  |
